Key:
[1] = test system: BxPC3-luc, clone 1F11 cells; assay: Gemcitabine sparing pancreatic cancer model, subcutaneous BxPC3-luc tumors; assay type: in vivo, female NSG mice; details: Compound C 10 mg/kg BID s.c., gemcitabine 25 mg/kg QW i.p., day 7 through day 70; FIG. 4
Experimental: Methods: Pancreatic cancer tumors were generated by subcutaneous injection of 100 μL of BxPC3-luc, clone 1F11 cells (1×10^6) in matrigel into the right flank of female NSG mice. Tumors were allowed to grow for 7 days prior to initiating treatment. At day 7 post-implant, mice were randomized into treatment groups (n=5/group) and treatment was initiated per dose route and regimen as described below:
Gemcitabine (Gem) at a low sensitizing dose was administered 25 mg/kg QW by intraperitoneal route. Compound C was administered 10 mg/kg BID by subcutaneous route. Treatments were administered from day 7 through day 70.
Body weight and tumor volume by caliper was measured weekly. At day 70 imaging was performed by administering 150 mg/kg luciferin and measuring whole body […] by IVIS imaging system. Tumors and organs were then harvested and imaged ex vivo.

P-selectin = assay: P-selectin-mediated HL-60 cell binding to immobilized P-selectin/Fc chimera; assay type: cell-based; details: HL-60 cells, best-fit values
Experimental: 96 well plates were coated with 10 μg/mL Protein A overnight, then blocked with 2% FBS for 1 hour. 2 μg/mL P-selectin/Fc chimera was bound to the Protein A for 3 hours at 4° C. HL-60 cells (2e5 cells/well, CMFDA labeled) were then layered onto the P-selectin and allowed to bind for 1 hour at room temperature. Wells were treated concurrently with test samples to determine inhibitory binding activity. After 1 hour, unbound cells were washed and bound cells lysed in a 1% Triton-X solution and read on a Fluorimeter at 480/520 nm.

P-sel IC50 (P-selectin) | Molecule | tumor growth inhibition (tumor volume by caliper) [1]
 | Nc1ccn([C@@H]2O[C@H](CO)[C@@H](O)C2(F)F)c(=O)n1 [Gemcitabine] | no effect on tumor growth
64.72 µg/mL | enoxaparin | 

— patent US20250353936A1, “CHEMICALLY MODIFIED HEPARIN” (IHP Therapeutics Inc., priority 2022, published 2025)
